Measurements taken from patent US20220324862A1, “PYRIDOPYRIMIDINONE COMPOUNDS” (Acerand Therapeutics (USA) Limited, priority 2021, published 2022).
Like-named read-outs stand apart in the source and are kept apart here.

Tests used:
[1] = test system: cellular pERK in NCI-H1975 cells (EGFR/L858R-T790M); assay: pERK Potency Assay; type: cell-based; settings: Homo sapiens, 1 hour incubation, Western blot, read-out: IC50 value, cellular pERK level
Description: The purpose of this assay is to measure the ability of test compounds to inhibit SOS1 function in cells. SOS1 activates RAS proteins by catalyzing the conversion of RAS-GDP to RAS-GTP in response to receptor tyrosine kinase activation. Activation of RAS induces a sequence of cellular signaling events that results in increased phosphorylation of ERK at Threonine 202 and Tyrosine 204 (pERK). The procedure described below measured the level of cellular pERK in response to test compounds in NCI-H1975 cells (EGFR/L858R-T790M).
NCI-H1975 cells were grown and maintained using media and procedures recommended by the ATCC. On the day prior to compound addition, cells were plated in 24-well cell culture plates (0.9 ml/well) and grown overnight in a 37° C., 5% CO2 incubator. Test compounds were prepared with 3-fold serial dilutions in DMSO, with a top concentration of 10 mM. On the day of the assay, 100 uL of each test compound diluted at 1:100 in media was added to each well of cell culture plate with final concentrations of the compound spanning 0.5 nM to 10 uM. After the compound was added, the cells were incubated for 1 hour at 37° C., 5% CO2. Following incubation, culture medium was removed, and the cells were washed once with phosphate buffered saline and lysed with lysis buffer (20 mM Tris-HCl, pH 7.5, 150 mM NaCl, 1 mM EDTA, 1 mM EGTA, 0.8% NP-40 plus 2× protease and phosphatase inhibitors). Cellular pERK level was determined using the Western blot analysis and quantified with Liqor software. Signal from Western blot was plotted and IC50 values were determined by fitting a 4-parameter sigmoidal concentration response model.

[2] = target: T1, protein-protein interaction between SOS1 and KRAS-G12D (Homo sapiens, UniProt Q07889); assay: HTRF Based Protein-Protein Interaction Assay; type: binding
T1 construct: The purified GST-SOS1 catalytic domain (residues 564-1049) was first diluted in assay buffer; made in house; host or cells: E. coli BL21 (DE3) for SOS1; E. coli BL21 carrying a BirA plasmid for KRAS-G12D
T1 sequence (Q07889 564-1049): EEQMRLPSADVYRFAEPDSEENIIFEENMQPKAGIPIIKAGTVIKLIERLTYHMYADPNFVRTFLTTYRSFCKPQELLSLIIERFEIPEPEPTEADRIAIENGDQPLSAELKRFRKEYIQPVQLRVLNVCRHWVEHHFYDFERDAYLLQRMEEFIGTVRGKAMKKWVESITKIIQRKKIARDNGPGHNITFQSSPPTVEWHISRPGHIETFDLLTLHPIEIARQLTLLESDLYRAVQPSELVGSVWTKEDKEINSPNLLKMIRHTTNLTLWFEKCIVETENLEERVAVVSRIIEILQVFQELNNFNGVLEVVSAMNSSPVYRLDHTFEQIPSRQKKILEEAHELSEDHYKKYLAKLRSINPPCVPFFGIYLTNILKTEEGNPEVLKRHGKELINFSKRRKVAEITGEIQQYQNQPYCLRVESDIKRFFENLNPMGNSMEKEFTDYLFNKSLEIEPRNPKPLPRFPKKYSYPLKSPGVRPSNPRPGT
Description: A KRAS-G12D and SOS1 binding/interaction assay was designed to measure the interaction between KRAS-G12D and SOS1 proteins. Utilizing HTRF (Homogeneous Time-Resolved Fluorescence) technology, the assay enabled simple and rapid characterization of compound and protein interaction in a high throughput format. This assay was used to examine potency of the compounds in inhibiting the protein-protein interaction between SOS1 and KRAS-G12D. […] Low IC50 values are indicative of high potency of the SOS1 inhibitor compound to disrupt SOS1 and Kras-G12D interaction.
Protein Expression and Purification. The corresponding gene sequence to human SOS1 (residues 564-1049, UniProt ID: Q07889; SEQ ID NO: 2) was synthesized and fused in frame with GST expression vector. After the desired sequence was confirmed, plasmid containing the sequence was transformed into the E. coli strain BL21 (DE3). Bacteria were growing at 37° C. in LB media containing 50 μg/ml Kanamycin to give OD600 of 0.6-0.8. Then 0.2 mM IPTG was added to induce protein expression for 16 hours at 17° C. Bacteria were harvested by centrifugation and stored at −80° C. Bacteria pellets were resuspended in lysis buffer (25 mM Tris-HCl, 500 mM NaCl, 2 mM DTT, 2.3% sucrose, 0.3% dextran-10, 1 mM PMSF, pH 7.5) and lysed using high-pressure homogenizer. The lysate was cleared by centrifugation for 30 minutes (12000 rpm at 4° C.). The supernatant containing GST-SOS1 fragment was purified sequentially through Glutathione column and gel filtration (Hiload 16/600 Superdex […] column, Cytiva). The purified GST-SOS1 fragment was confirmed by SDS-PAGE and stored in 25 mM Tris-HCl, 100 mM NaCl, 1 mM DTT, 2.3% sucrose, 0.3% dextran-10, pH 7.5 at −80° C.
Kras-G12D Protein Purification. The sequence corresponding to human KRAS-G12D (residues 1-169, UniProt P01116-2; SEQ ID NO: 1) was synthesized and fused in frame with His-AVI-TEV vector. The plasmid was transformed into the E. coli strain BL21 (containing a plasmid that can generate BirA enzyme). Bacteria were growing at 37° C. in TB media containing 100 μg/ml ampicillin and 50 μg/ml Kanamycin to give OD600 of 0.6-0.8. The 0.5 mM IPTG and 50 mg/l biotin were added to induce protein expression for 16 hours at 25° C. Bacteria were harvested by centrifugation and stored at −80° C. Bacteria pellets were re-suspended in lysis buffer (20 mM Tris-HCl, 500 mM NaCl, 5 mM MgCl2, 2 mM […], 5% glycerol, pH 8.0) and lysed using high-pressure homogenizer. The lysate was cleared by centrifugation for 30 minutes (12000 rpm at 4° C.). The supernatant containing HIS-AVI-TEV-KRAS-G12D fragment was purified sequentially through Ni-NTA column (SMART), Streptactin column (SMART), and gel filtration (Hiload 16/600 Superdex 75 pg, GE). The purified HIS-AVI-TEV-KRAS-G12D fragment was confirmed by SDS-PAGE and stored in 50 mM HEPES-NaOH, 100 mM NaCl, 1 mM DTT, 5 mM MgCl2, pH 7.5 at −80° C.
Protein-Protein Interaction Assay. An assay buffer containing 50 mM HEPES, pH 7.5, 50 mM NaCl, 0.01% Brij-35, 1 mM TCEP, 0.1% BSA was prepared, and concentration series of test compounds were generated spanning from 0.5 nM to 10 μM over 10 3-fold serial dilutions in a 384-well assay plate at a volume of 20 pL. The purified GST-SOS1 catalytic domain (residues 564-1049) was first diluted in assay buffer and 5 μl of SOS1 (final concentration 2.5 nM in assay mixture) was directly dispensed into compound plates. After a spin down at 1000 RPM for 30 seconds, the SOS1/compound mixture was incubated at 25° C. for 15 minutes to allow the reaction between SOS1 and the compound. A KRAS-G12D mixture was prepared by incubation of avi-tagged Kras-G12D (residue 1-169) and GDP in assay buffer containing 10 mM MgCl2 at room temperature for 10 minutes. A KRAS-G12D and GDP mixture (5 μL) was added to the assay plate (final KRAS-G12D was 100 nM and GDP was 10 uM). The plate was centrifuged at 1000 rpm for 30 sec and incubated at 25° C. for 60 minutes. […]

[3] = HTRF, GST-SOS1 2.5 nM, KRAS-G12D 100 nM, GDP 10 uM, read-out: IC50 value, inhibition of SOS1/KRAS-G12D protein-protein interaction

IC50 [1]	IC50 [2, 3]	Compound	IC50 [2]
< 100 nM	100 to 200 nM	[2H]C([2H])([2H])n1c(=O)c(C2(O)CCN(C(C)=O)CC2)cc2c(N[C@H](C#C)c3cccc(C(F)(F)F)c3C)nc(C)nc21 [Compound 51, 6-(1-acetyl-4-hydroxypiperidin-4-yl)-8-(^2H3)methyl-2-methyl-4-{[(1R)-1-[2-methyl-3-(trifluoromethyl)phenyl]prop-2-yn-1-yl]amino}-7H,8H-pyrido[2,3-d]pyrimidin-7-one]	–
< 100 nM	100 to 200 nM	[2H]C([2H])([2H])n1c(=O)c(C2(OC)CCN(C(C)=O)CC2)cc2c(N[C@H](C#C)c3cccc(C(F)(F)F)c3C)nc(C)nc21 [Compound 50, 6-(1-acetyl-4-methoxypiperidin-4-yl)-8-(^2H3)methyl-2-methyl-4-{[(1R)-1-[2-methyl-3-(trifluoromethyl)phenyl]prop-2-yn-1-yl]amino}-7H,8H-pyrido[2,3-d]pyrimidin-7-one]	–
100 to 500 nM	< 100 nM	C#C[C@@H](Nc1nc(C)nc2cc(=O)n(C3(C(F)F)CC3)cc12)c1cccc(C(F)F)c1F [Compound 24, (R)-4-((1-(3-(difluoromethyl)-2-fluorophenyl)prop-2-yn-1-yl)amino)-6-(1-(difluoromethyl)cyclopropyl)-2-methylpyrido[4,3-d]pyrimidin-7(6H)-one]	–
100 to 500 nM	–	[2H]C([2H])([2H])n1c(=O)c(C2=CCN(C(C)=O)CC2)cc2c(N[C@H](C#C)c3cccc(C(F)(F)F)c3C)nc(C)nc21 [Compound 52, 6-(1-acetyl-1,2,3,6-tetrahydropyridin-4-yl)-8-(^2H3)methyl-2-methyl-4-{[(1R)-1-[2-methyl-3-(trifluoromethyl)phenyl]prop-2-yn-1-yl]amino}-7H,8H-pyrido[2,3-d]pyrimidin-7-one]	–
< 100 nM	100 to 200 nM	C#C[C@@H](Nc1ncnc2c1cc(C1(F)CCN(C(C)=O)C1)c(=O)n2C)c1cccc(C(F)F)c1F (stereo partly drawn) [Compound 45, 6-(1-acetyl-3-fluoropyrrolidin-3-yl)-4-{[(1R)-1-[3-(difluoromethyl)-2-fluorophenyl]prop-2-yn-1-yl]amino}-8-methyl-7H,8H-pyrido[2,3-d]pyrimidin-7-one]	–
100 to 500 nM	–	C#C[C@@H](Nc1ncnc2c1cc(C1(NC(C)=O)CC3CCC(C1)O3)c(=O)n2C)c1cccc(C(F)F)c1F (stereo partly drawn) [Compound 61, N-(3(4-(((R)-1-3-(difluoromethyl)-2-fluorophenyl)prop-2-yn-1-yl)amino-8-methyl-7-oxo-7,8-dihydorpyrido[2,3-d]pyrimidin-6-yl)-8-oxabicyclo[3.2.1]octan-3-yl)acetamide]	–
100 to 500 nM	< 100 nM	C#C[C@@H](Nc1nc(C)nc2cc(=O)n(C3(C(F)F)CC3)cc12)c1cccc(C(F)F)c1C [Compound 1, (R)-4-((1-(3-(difluoromethyl)-2-methylphenyl)prop-2-yn-1-yl)amino)-6-(1-(difluoromethyl)cyclopropyl)-2-methylpyrido[4,3-d]pyrimidin-7(6H)-one]	–
100 to 500 nM	–	C#C[C@@H](Nc1ncnc2c1cc(C1=CC3CCC(C1)O3)c(=O)n2C)c1cccc(C(F)F)c1F (some centres unmarked) [Compound 62]	–
< 100 nM	100 to 200 nM	[2H]C([2H])([2H])n1c(=O)c(C2(F)CCN(C(C)=O)CC2)cc2c(N[C@H](C#C)c3cccc(C(F)(F)F)c3C)nc(C)nc21 [Compound 53]	–
< 100 nM	–	C#C[C@@H](Nc1ncnc2c1cc(C1(N)CCOCC1)c(=O)n2C)c1cccc(C(F)(F)F)c1C [Compound 60]	–

Compound	IC50 [1]	IC50 [2, 3]	IC50 [2]
C#C[C@@H](Nc1ncnc2c1cc(C1(NC(C)=O)CC3CCC(C1)N3C(C)=O)c(=O)n2C)c1cccc(C(F)F)c1F (some centres unmarked) [Compound 64]	100 to 500 nM	–	–
C#C[C@@H](Nc1ncnc2c1cc(C1=CC3CCC(C1)N3C(C)=O)c(=O)n2C)c1cccc(C(F)F)c1F (some centres unmarked) [Compound 65]	< 100 nM	–	< 100 nM
C#C[C@@H](Nc1ncnc2c1cc(C1(O)CC3CCC(C1)N3C(C)=O)c(=O)n2C)c1cccc(C(F)F)c1F (some centres unmarked) [Compound 63]	100 to 500 nM	–	–
